Results on 2 molecules are retold here after patent US20240166658A1, “PORPHYRIN DERIVATIVES AND USES THEREOF” (University of Tasmania, priority 2021, published 2024).

The nature of one assay: Soil tests. The settings on record: 5 g dried soil, 20 mL host in dichloromethane, no pre-treatment or pre-concentration. The method, then: Soil was taken front the top 15 cm of the garden bed outside the Chemistry Building at the University of Tasmania and dried in the oven at 40° C. for approximately 60 hours. This soil was then spiked with 10 ppm PFOA: Two 50 g dried soil samples were transferred into two separate 1 L polypropylene containers. One sample was combined with a dichloromethane-PFOA solution (200 mL of 6×10^−6 M PFOA in DCM) and the other was combined with only dichloromethane (200 mL). The solutions were left to evaporate. 5 g of the resulting samples was transferred to high density polyethylene tubes.
Combinations of sensor molecule (9) in different organic solvents were added to spiked and control samples, and the results were compared. Water was also added to see if a biphasic system was beneficial for extraction from soil. • A=20 mL dichloromethane+medium chain sensor (9) • B=10 mL of water-->20 mL dichloromethane+medium chain sensor (9) • C=20 mL ethyl acetate+medium chain sensor (9) • D=20 mL toluene+medium chain sensor (9)
Dried soil samples (5 g) were also combined with 20 mL of host (9) in dichloromethane and shaken to show a colour change observable in the solvent.

Another assay is described as follows: Filter paper tests. The settings on record: aqueous PFOA in the <5 ppm range, dipped or dropped. The protocol:
Sensor molecule (9) was dissolved in dichloromethane and filter papers were soaked in the solution. The papers were removed and dried by evaporation. The paper was then dipped into aqueous solutions of PFOA or aqueous solutions were dropped onto the paper. […] The aqueous solutions of PFOA tested were in the <5 ppm range.

Assay [1] is described as follows: UV-Vis host-guest titration, association constant. It is filed as binding. The settings on record: host (9) in dichloromethane; triplicate, TBA salt and acid; Bindfit. The protocol:
(§1) Path length of the quartz cell was 1 cm. For UV-vis titrations, a stock solution of host was prepared (2.2×10^−3 M) in dichloromethane (DCM) and serially diluted to the required concentrations. Working solutions of tetrabutylammonium (TBA) anion salts or guest molecules were prepared in the same manner Host−guest titrations used solutions of guest prepared in the working concentration of host solution, according to the procedure of Thordarson, 2011.
(§2) UV-vis spectroscopic host−guest titrations were performed in accordance with the methodologies of Thordarson, 2011. Solutions of host in dichloromethane were prepared. Solutions of guest were then prepared in the host solution. Aliquots of guest in host solution were added to host solution and sequentially analysed until a known molar equivalent of guest was added. The amount of guest added per aliquot was ascertained by a preliminary screening experiment; strong association constants required smaller molar equivalents so more information could be collected. By way of example, host (9) responded to 0.1 molar equivalent of PFBA strongly, so an addition of 1 molar equivalent of PFBA would result in a loss of information. The inverse is true for weaker binding interactions. […]
(§3) A host solution of host (9) in dichloromethane was monitored using UV-Vis analysis as 0.5-10 equivalents of each PFAS was added. […]

A short description of assay [2]: UV-Vis host-guest titration, association constant. Conditions: host (9) in dichloromethane; triplicate, TBA salt and acid; Bindfit. It counts as binding. The method, then: as §1, §2, §3
This is another data set of the same source.

A short description of assay [3]: Colorimetric matching of mixed PFCA samples, low concentration. The method, then:
In the “low” PFCA concentration experiment, the RGB response values had the greatest rate of change from 0-40 ppb PFOA and appeared to level out between 40-80 ppb PFOA. In that instance, the regression was fit for a host : guest ratio of 0-0.8. To probe the sensor's response to a mixture of PFCAs, samples containing combinations of PFHxA, PFHpA, and PFDA in dichloromethane (7-28 ppb) were prepared and the RGB responses were collected. The PFCA concentrations for the samples were predicted using the PFOA regression (y=0.0591 ln(x)+0.037, R^2=0.9771).
The lowest concentration PFCA sample (7 ppb) was predicted to be ca. 11 ppb (58% error) from the PFOA regression, whilst the higher concentration mixed PFCA samples (14.1 and 28.8 ppb) were predicted to be ca. 16 and 23 ppb (17 and 18% error respectively). Thus, host (12) may be coupled with a phone camera to estimate mixed PFCA concentrations from RGB data with <20% error, or used visually for threshold detection of total PFCA concentrations above 10 ppb.

Assay [4] can be described thus: Colorimetric matching of a PFCA sample, organic. Conditions: CIE76. The method, then: To probe the sensitivity of this technique visually, a colour chart based on the response of host (12) to known concentrations of PFOA was tested against another PFCA. The PFCA was chosen to be PFHxA, as PFOA was used for the calibration process. Samples of PFHxA (4 ppm) were prepared and combined with host (12). The average colour from triplicate experiments was compared to a calibration chart. The RGB values for host (12) were collected at six concentrations of PFOA. To make a direct comparison to the 4 ppm PFHxA sample, a colour chart was generated by fitting four colour points between the measured values for 0 and 5 ppm of PFOA. The generated RGB value for the 4 ppm PFOA was then compared to the measured RGB value for the 4 ppm PFHxA sample. […] The 3 and 5 ppm PFOA colours had ΔE values of 10.3 and 9.5 respectively, making the 4 ppm colour the most suitable match.

Some results are limits rather than exact numbers.

For the molecule `O=C(Nc1ccccc1-c1c2nc(c(-c3ccccc3NC(=O)C(F)(F)C(F)(F)C(F)(F)C(F)(F)C(F)(F)C(F)(F)C(F)(F)F)c3ccc([nH]3)c(-c3ccccc3NC(=O)C(F)(F)C(F)(F)C(F)(F)C(F)(F)C(F)(F)C(F)(F)C(F)(F)F)c3nc(c(-c4ccccc4NC(=O)C(F)(F)C(F)(F)C(F)(F)C(F)(F)C(F)(F)C(F)(F)C(F)(F)F)c4ccc1[nH]4)C=C3)C=C2)C(F)(F)C(F)(F)C(F)(F)C(F)(F)C(F)(F)C(F)(F)C(F)(F)F` [host (9), α,α,α,α-5,10,15,20-tetrakis(2-(pentadecafluorooctanoylamino)phenyl)porphyrin], the “colour change with soil sample” value in the assay “Soil tests” was “discernible by the naked eye”. The “colour change of host-soaked filter paper” value in the assay “Filter paper tests” is recorded as “A colour change was discernible”. Further, the “K value (averaged association constant Ka)” value in assay [1] is 20459; in assay [2], 392106.
Take `O=C(Nc1ccccc1-c1c2nc(c(-c3ccccc3NC(=O)C(F)(F)C(F)(F)C(F)(F)C(F)(F)C(F)(F)C(F)(F)C(F)(F)C(F)(F)C(F)(F)C(F)(F)C(F)(F)F)c3ccc([nH]3)c(-c3ccccc3NC(=O)C(F)(F)C(F)(F)C(F)(F)C(F)(F)C(F)(F)C(F)(F)C(F)(F)C(F)(F)C(F)(F)C(F)(F)C(F)(F)F)c3nc(c(-c4ccccc4NC(=O)C(F)(F)C(F)(F)C(F)(F)C(F)(F)C(F)(F)C(F)(F)C(F)(F)C(F)(F)C(F)(F)C(F)(F)C(F)(F)F)c4ccc1[nH]4)C=C3)C=C2)C(F)(F)C(F)(F)C(F)(F)C(F)(F)C(F)(F)C(F)(F)C(F)(F)C(F)(F)C(F)(F)C(F)(F)C(F)(F)F` [host (12), α,α,α,α-5,10,15,20-tetrakis(2-(tricosafluorododecanoylamino)phenyl) porphyrin]: the “average ΔE of mixed PFCA samples vs host solution” value in assay [3] (7-28 ppb) was greater than 10. For the same molecule, the entries for the “concentration predicted from PFOA regression” value in assay [3] (7 ppb PFCA sample), in assay [3] (14.1 ppb mixed PFCA sample) and in assay [3] (28.8 ppb mixed PFCA sample) were “ca. 11 ppb”, “ca. 16 ppb” and roughly 23 ppb, respectively. Further, the “ΔE (Host − PFCA)” value stood at 11 in assay [3] (PFCAs 7 ppb), 11 in assay [3] (PFCAs 14 ppb) and 12 in assay [3] (PFCAs 28 ppb). Also, the figures for the “ΔE, PFOA chart colour vs 4 ppm PFHxA sample” value in assay [4] (3 ppm PFOA colour), in assay [4] (4 ppm PFOA colour) and in assay [4] (5 ppm PFOA colour) were 10.3, 7.3 and 9.5, respectively.
